According to US20250332212A1, “METHOD FOR TREATING OR PREVENTING ALOPECIA” (Suzhou Mingren Pharmaceutical Biotechnology Co., Ltd., priority 2024, published 2025):
Square brackets hold non-standard residues; d marks the D form. Ends that are not written are not given here. pS = N[C@@H](COP(=O)(O)O)C(=O)O

Experiments:
Wnt signaling pathway = assay: Proteomics and protein phosphorylation sequencing of skin tissue (KEGG, GSEA); type: in vivo, mouse
Experimental: Appropriate amounts of mouse skin tissues (n=3) from the model group and 1% JP1 group were added to a mortar pre-cooled with liquid nitrogen, and ground thoroughly with liquid nitrogen into powders. The samples were separately added to lysis buffer and lysed by ultrasonication. The centrifugation was performed at 4° C., 12,000×g for 10 min, and protein concentration was determined by BCA. Trypsin digestion was followed by liquid chromatography-mass spectrometry serial analysis.

Wnt10b = Wnt10b expression in skin tissue (qPCR, Western blotting); type: in vivo, mouse
Experimental: (§1) To illustrate the regulation of JP1 on the upstream Wnt ligand of β-catenin, this example intersected classical signaling pathway-related Wnt ligands and AGA-related Wnt ligands, and screened out the related Wnt ligands, including Wnt1, Wnt3a, Wnt7b, Wnt10a, and Wnt10b. In this example, qPCR was used to detect the mRNA expression of these Wnt molecules in the skin tissue of the mouse model in Example 6.
(§2) 4.1) Protein extraction: 70 mg of skin tissue was placed in a 1.5 mL centrifuge tube, and 500 μL of tissue lysate RIPA containing protease inhibitor and phosphatase inhibitor was added. The tissue was placed on an ice box, pulverized by a tissue grinder, and then ultrasonically crushed to obtain a tissue suspension, which was then placed in a rotary windmill at 4° C. to be lysed for 2 h. The centrifuge was set at 12,000×g, 4° C., centrifuged for 15 min, and the supernatant was collected as the total protein.
5.1) Heating of protein samples: the total protein content of each tissue was 50 μg; calculate the volume of a corresponding protein sample, make up the volume with saline to 16 μL, then add 4 μL of 5×SDS sampling buffer, heat at 100° C. for 5 min, and then cool at room temperature and store at −20° C. […]
(§3) 7.3) Relative mRNA expression levels of genes were calculated by the […] relative quantification method using GAPDH as an internal reference.

Wnt1, Wnt3a, Wnt7b = assay: qPCR of the other Wnt molecules in skin tissue; type: in vivo, mouse; conditions: P>0.05
Experimental: as §1
(§4) 7.1) Dilute the specific gene amplification primers to 10 µM in ddH2O, prepare the qPCR reaction system according to the instructions in the kit and add them sequentially into a 384-well plate.
as §3

SP1 = SP1 expression in skin tissue (qPCR, immunoblotting, immunofluorescence); type: in vivo, mouse
Experimental: as §2
(§5) 5.1) Heating of protein samples: the total protein content of each tissue was 50 μg; calculate the volume of a corresponding protein sample, make up the volume with saline to 16 μL, then add 4 μL of 5×SDS sampling buffer, heat at 100° C. for 5 min, and then cool at room temperature and store at −20° C.
as §4, §3
9.5) Primary antibody incubation: the tissue was circled by the histochemical pen, about 50 μL of primary antibody was added dropwise to the tissue, and incubated in a wet box overnight at 4° C., washed 3 times with PBS.

MYC = assay: qPCR of MYC mRNA in skin tissue; type: in vivo, mouse; conditions: P>0.05
Experimental: as §4, §3

E2F1 = assay: qPCR of E2F1 mRNA in skin tissue; type: in vivo, mouse; conditions: after JP1 intervention, P<0.01
Experimental: as §4, §3

p-MEK = assay: Immunoblotting of p-MEK in skin tissue; type: in vivo, mouse; conditions: P<0.05, dose-effect relationship
Experimental: as §2, §5
(§6) 5.7) Primary antibody incubation: the cut protein bands were placed into the corresponding primary antibody and incubated at 4° C. on a shaker overnight, washed with TBST 3 times for 10 min/time.

p-ERK = assay: Immunoblotting of p-ERK in skin tissue; type: in vivo, mouse; conditions: P<0.05, dose-effect relationship
Experimental: as §2, §5, §6

p-c-Raf = assay: Immunoblotting of p-c-Raf in skin tissue; type: in vivo, mouse
Experimental: as §2, §5, §6

[1] = tested on: SP1, Wnt10a, Wnt10b and β-catenin; assay: Immunoblotting of SP1 and downstream molecules in skin, Animal model III; type: in vivo, mouse; conditions: 1% JP1
Experimental: as §2, §5, §6

[2] = JP1 permeability experiment (FITC-JP1 applied to depilated skin); conditions: 1% FITC-JP1 solution applied to dorsal depilated area
Experimental: In this Example, to elucidate the mechanism of JP1 penetrating the skin and acting on the hair follicle, a 14-day AGA modeling was performed according to the model design strategy of Example 1 above. Thereafter, a 1% FITC-JP1 solution was applied to the dorsal depilated area of the mice in a light-avoidance environment. Five time points were set at 0.5, 1, 2, 4 and 8 h for observation. The fresh skin tissue was made into frozen sections, and the penetration pathway of JP1 in the skin tissue and the amount of aggregation in the hair follicles were observed under an inverted fluorescence microscope.
15 C57BL/6J male mice were dorsally depilated after two weeks of continuous TP injection. A 1% FITC-JP1 solution was applied locally to the depilated area of the mice on the 1st day after depilation, no light, in five groups of 0.5 h, 1 h, 2 h, 4 h and 8 h (n=3).
The back skin was removed at the corresponding time points and fixed in 4% paraformaldehyde. After 48 h of fixation, the skin tissue was successively dehydrated in 20% and 30% sucrose solution for 2 days each. After gradient dehydration, sections (20 μm) were made using a frozen microtome. Zeiss inverted fluorescence microscope was used to photograph the fluorescent sections.

With FPGSDRF-RGD (FPG[pS]DRFRGD) [JP1] the “KEGG signaling pathway analysis, differences 1% JP1 vs model group” value (Wnt signaling pathway; skin tissue, proteomics) was “mainly enriched in the Wnt signaling pathway”, the “GSEA analysis of Wnt/β-catenin signaling pathway” value (Wnt signaling pathway; skin tissues of JP1-treated mice) was “enriched” and the Wnt10b protein expression (Wnt10b; Western blotting, dose-dependent) was “significantly up-regulated”. The “Wnt10b mRNA expression” value (Wnt10b; qPCR, P<0.05) was “elevated with a dose-effect relationship”, the “mRNA levels of the other Wnt molecules among the groups” value (Wnt1, Wnt3a, Wnt7b) was “not statistically significant” and the SP1 immunofluorescence (SP1) was “consistent with the protein immunoblotting results”. For the same substance, the “SP1 protein expression level” value (SP1; immunoblotting) was “elevated trend”, the “SP1 mRNA expression” value (SP1; qPCR) was “high expression” and the “SP1 mRNA expression level, 1% JP1 group vs 0.1% JP1 group” value (SP1; qPCR, P<0.05) was “significantly higher than that in the 0.1% JP1 group”. For the same substance, the “MYC mRNA level, difference between groups” value (MYC) was “not statistically significant”, the “E2F1 mRNA level expression” value (E2F1) was “elevated” and the p-MEK expression level (p-MEK) was “elevated”. For the same substance, the p-ERK expression level (p-ERK) was “elevated”, the p-c-Raf protein level (p-c-Raf) was “not significantly altered” and the “expression levels of key molecules (SP1, Wnt10a, Wnt10b, β-catenin), day 4” value [1] was “did not change significantly”. The “protein expression levels of four molecules (SP1, Wnt10a, Wnt10b, β-catenin), day 8” value [1] was “increased significantly”, the “fluorescence brightness at 8 h” value [2] was “obviously weakened” and the “distribution of the drug in skin at 0.5 h” value ([2]; fluorescence) was “basically covered the surface of the skin”.
